System: 439559-082-T-J2-PDC spheroids viability
Experiment: Anticancer human tumor 439559-082-T-J2-PDC patient-derived colon adenocarcinoma cell line growth inhibition [GQUAD]
Details: for IC50: curve of first compound; for viability, T/C: stronger effect = lower value
Excerpt: DNA G-quadruplex Stabilizer Agents in Combinations in Complex Spheroids
A high-throughput screen of multi-cell type tumor spheroids was designed to identify active combinations of DNA G-quadruplex stabilizer agents and targeted small molecules. Complex spheroids include a stromal component modeled by human endothelial cells (HUVEC) and fibroblasts modeled by human mesenchymal stem cells (MSCs). The concentration ranges selected for each drug and investigational agent were based upon clinically achievable concentrations if the clinical Cmax of the agent was known.
Compounds. The drugs and investigational agents: pidnarulex (CX-5461; NSC782164), APTO-253 (NSC789042), BRACO-19 (NSC847499), peposertib (NSC802822), ceralasertib (NSC780249), elimusertib (NSC800525), camonsertib (NSC841442), AZD-1390 (NSC803789), olaparib (NSC753686), talazoparib (NSC767125), ART-558 (NSC835418), sotorasib (NSC818433), MRTX-1133 (NSC836407), SN-38 (NSC673596), topotecan (NSC609699), etoposide (NSC141540), doxorubicin (NSC123127), gemcitabine (NSC613327), 5-fluorouracil (NSC19893), paclitaxel (NSC125973), vemurafenib (NSC761431), panobinostat (NSC761190), R-306465 (JNJ-16241199; NSC773264), adavosertib (NSC754352), TP-3654 (NSC805149), carboplatin (NSC241240), KSQ-4279 (NSC840948), and staurosporine (NSC755774) were obtained from the National Cancer Institute (NCI) Developmental Therapeutics Program Chemical Repository (34). The FDA-approved anticancer drug set is available from the NCI Developmental Therapeutics Program. […] The stock solutions were prepared in dimethyl sulfoxide (DMSO, Sigma-Aldrich, St. Louis, MO, cat. D2650) at 800-fold the tested concentration and stored at -70 degrees C prior to their use. All drugs and investigational agents were tested over a range starting from a high concentration at or near the clinical Cmax and decreasing in half-log increments. If the clinical Cmax for an agent had not been determined, the highest concentration tested was 10 microM.
2.3 Cell Culture. All cells were maintained in an incubator at 37 degrees C and 5% CO2 with 95% humidity. The PDC lines were cultured according to standard operating procedures established by the NCI PDMR. All PDCs were thawed and cultured in Matrigel-coated flasks prepared with a working solution of 1X Ham's F-12 nutrient mix, without supplementation (Invitrogen, cat. 11765054), 100 U/mL penicillin-streptomycin (Invitrogen, cat. 15140122), and 2.5% Matrigel (Corning Inc., cat. 354248) for the first three passages. The 857933-349-R-J2-PDC line was cultured in 6C/Colon 1B media, which includes advanced DMEM/F-12 (Thermo Fisher Scientific, cat. 12634028), 10 mM HEPES (Thermo Fisher Scientific, cat. 15630080), 1X GlutaMAX supplement (Thermo Fisher Scientific, cat. 35050061), 0.1 mg/mL primocin (InvivoGen, cat. ant-pm-2), 10% defined fetal bovine serum, heat inactivated (HyClone Laboratories Inc., cat. SH30070.03HI), 50% L-WRN conditioned media (ATCC, cat. CRL-3276), 1.25 mM N-Acetyl-L-cysteine (Sigma-Aldrich, cat. A9165), 10 mM nicotinamide (Sigma-Aldrich, cat. N0636), 1X B-27 supplement (Thermo Fisher Scientific, cat. 17504044), 1X N-2 supplement (Thermo Fisher Scientific, cat. 17502048), 10 microM Y-27632 dihydrochloride (Tocris Bioscience, cat. 1254), and 50 ng/mL human EGF recombinant protein (Thermo Fisher Scientific, cat. PHG0311). The 485176-168-R4-J1-PDC line was cultured in Panc media, which includes all 6C/Colon 1B media components plus 100 ng/mL human FGF-10 (Thermo Fisher Scientific, cat. 100-26), 500 nM SB-431542 (Selleckchem, cat. S1067), and gastrin (Tocris, cat. 3006).
[…]

[1] = second compound 0.0316 µM, first compound 0.0316 µM
[2] = second compound 0.0316 µM, first compound 0.1 µM
[3] = second compound 0.0316 µM, first compound 0.316 µM
[4] = second compound 0.0316 µM, first compound 1 µM
[5] = second compound 0.0316 µM, first compound 3.16 µM
[6] = second compound 0.0316 µM, first compound 10 µM
[7] = second compound 0.1 µM, first compound 0.0316 µM
[8] = second compound 0.1 µM, first compound 0.1 µM
[9] = second compound 0.1 µM, first compound 0.316 µM
[10] = second compound 0.1 µM, first compound 1 µM
[11] = second compound 0.1 µM, first compound 3.16 µM
[12] = second compound 0.1 µM, first compound 10 µM
[13] = second compound 0.316 µM, first compound 0.0316 µM
[14] = second compound 0.316 µM, first compound 0.1 µM
[15] = second compound 0.316 µM, first compound 0.316 µM
[16] = second compound 0.316 µM, first compound 1 µM
[17] = second compound 0.316 µM, first compound 3.16 µM
[18] = second compound 0.316 µM, first compound 10 µM
[19] = second compound 1 µM, first compound 0.0316 µM
[20] = second compound 1 µM, first compound 0.1 µM
[21] = second compound 1 µM, first compound 0.316 µM
[22] = second compound 1 µM, first compound 1 µM
[23] = second compound 1 µM, first compound 3.16 µM
[24] = second compound 1 µM, first compound 10 µM
[25] = second compound 3.16 µM, first compound 0.0316 µM
[26] = second compound 3.16 µM, first compound 0.1 µM
[27] = second compound 3.16 µM, first compound 0.316 µM
[28] = second compound 3.16 µM, first compound 1 µM
[29] = second compound 3.16 µM, first compound 3.16 µM
[30] = second compound 3.16 µM, first compound 10 µM
[31] = second compound 10 µM, first compound 0.0316 µM
[32] = second compound 10 µM, first compound 0.1 µM
[33] = second compound 10 µM, first compound 0.316 µM
[34] = second compound 10 µM, first compound 1 µM
[35] = second compound 10 µM, first compound 3.16 µM
[36] = second compound 10 µM, first compound 10 µM
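Note: spheroids exposed to the agents for 7 days before readout.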
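Throughout, for viability, T/C: percent of luminescence signal in DMSO vehicle wells taken as 100% viability.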

CC1COCCN1c1cc(C2(S(C)(=N)=O)CC2)nc(-c2ccnc3[nH]ccc23)n1 (stereo unspecified) + CN(C)c1ccc(Nc2c3ccc(NC(=O)CCN4CCCC4)cc3nc3cc(NC(=O)CCN4CCCC4)ccc23)cc1
IC50 (second compound 0.0316 µM): > 10 µM
IC50 (second compound 0.1 µM): > 10 µM
IC50 (second compound 0.316 µM): > 10 µM
IC50 (second compound 1 µM): > 10 µM
IC50 (second compound 3.16 µM): > 10 µM
IC50 (second compound 10 µM): > 10 µM
viability, T/C [1]: 93.8%
viability, T/C [2]: 90%
viability, T/C [3]: 92.4%
viability, T/C [4]: 86.8%
viability, T/C [5]: 89.7%
viability, T/C [6]: 65%
viability, T/C [7]: 97.1%
viability, T/C [8]: 97.4%
viability, T/C [9]: 89.9%
viability, T/C [10]: 94.7%
viability, T/C [11]: 79.9%
viability, T/C [12]: 64.4%
viability, T/C [13]: 93.3%
viability, T/C [14]: 107%
viability, T/C [15]: 97.8%
viability, T/C [16]: 100%
viability, T/C [17]: 93.4%
viability, T/C [18]: 64.3%
viability, T/C [19]: 100%
viability, T/C [20]: 107%
viability, T/C [21]: 102%
viability, T/C [22]: 86.8%
viability, T/C [23]: 84.5%
viability, T/C [24]: 67.6%
viability, T/C [25]: 105%
viability, T/C [26]: 98.9%
viability, T/C [27]: 104%
viability, T/C [28]: 93.5%
viability, T/C [29]: 88.6%
viability, T/C [30]: 62.4%
viability, T/C [31]: 97.3%
viability, T/C [32]: 98.6%
viability, T/C [33]: 115%
viability, T/C [34]: 106%
viability, T/C [35]: 81.8%
viability, T/C [36]: 63.7%

CCCS(=O)(=O)Nc1ccc(F)c(C(=O)c2c[nH]c3ncc(-c4ccc(Cl)cc4)cc23)c1F + Cc1[nH]c2ccc(F)cc2c1-c1nc2c3cccnc3c3ncccc3c2[nH]1
IC50 (second compound 0.0316 µM): 2.75 µM
IC50 (second compound 0.1 µM): 2.64 µM
IC50 (second compound 0.316 µM): 3.1 µM
IC50 (second compound 1 µM): 3.13 µM
IC50 (second compound 3.16 µM): 2.04 µM
IC50 (second compound 10 µM): 2.61 µM
viability, T/C [1]: 108%
viability, T/C [2]: 96.2%
viability, T/C [3]: 103%
viability, T/C [4]: 78.5%
viability, T/C [5]: 46.5%
viability, T/C [6]: 21.1%
viability, T/C [7]: 104%
viability, T/C [8]: 94.5%
viability, T/C [9]: 95%
viability, T/C [10]: 83.8%
viability, T/C [11]: 43.5%
viability, T/C [12]: 22.7%
viability, T/C [13]: 105%
viability, T/C [14]: 100%
viability, T/C [15]: 89.8%
viability, T/C [16]: 80.2%
viability, T/C [17]: 47.6%
viability, T/C [18]: 23%
viability, T/C [19]: 108%
viability, T/C [20]: 97.3%
viability, T/C [21]: 90.4%
viability, T/C [22]: 75.1%
viability, T/C [23]: 48.6%
viability, T/C [24]: 20.8%
viability, T/C [25]: 78.7%
viability, T/C [26]: 86%
viability, T/C [27]: 79.5%
viability, T/C [28]: 65.2%
viability, T/C [29]: 40.5%
viability, T/C [30]: 16.2%
viability, T/C [31]: 81.2%
viability, T/C [32]: 67.6%
viability, T/C [33]: 71.5%
viability, T/C [34]: 67.6%
viability, T/C [35]: 46.1%
viability, T/C [36]: 13.5%

O=c1[nH]cc(F)c(=O)[nH]1 + Cc1[nH]c2ccc(F)cc2c1-c1nc2c3cccnc3c3ncccc3c2[nH]1
IC50 (second compound 0.0316 µM): > 10 µM
IC50 (second compound 0.1 µM): > 10 µM
IC50 (second compound 0.316 µM): > 10 µM
IC50 (second compound 1 µM): > 10 µM
IC50 (second compound 3.16 µM): > 10 µM
IC50 (second compound 10 µM): > 10 µM
viability, T/C [1]: 90.7%
viability, T/C [2]: 95.5%
viability, T/C [3]: 87.7%
viability, T/C [4]: 78.9%
viability, T/C [5]: 76.8%
viability, T/C [6]: 82.3%
viability, T/C [7]: 101%
viability, T/C [8]: 89.8%
viability, T/C [9]: 83.3%
viability, T/C [10]: 75.1%
viability, T/C [11]: 73.3%
viability, T/C [12]: 83.4%
viability, T/C [13]: 101%
viability, T/C [14]: 99.2%
viability, T/C [15]: 83.7%
viability, T/C [16]: 74.8%
viability, T/C [17]: 79.5%
viability, T/C [18]: 76.3%
viability, T/C [19]: 91.9%
viability, T/C [20]: 96.3%
viability, T/C [21]: 79.1%
viability, T/C [22]: 72.8%
viability, T/C [23]: 70.6%
viability, T/C [24]: 72.3%
viability, T/C [25]: 103%
viability, T/C [26]: 88.8%
viability, T/C [27]: 76.5%
viability, T/C [28]: 65%
viability, T/C [29]: 62.5%
viability, T/C [30]: 59.1%
viability, T/C [31]: 82.2%
viability, T/C [32]: 81.9%
viability, T/C [33]: 67.9%
viability, T/C [34]: 59.3%
viability, T/C [35]: 57.5%
viability, T/C [36]: 59.8%

— PubChem BioAssay AID2060510 (Molecular Pharmacology Branch, DTP, NCI, 2025)
